Consider 2 molecules from ChEMBL document CHEMBL4680145, “Expansion of chemical space based on a pyrrolo[1,2-a]pyrazine core: Synthesis and its anticancer activity in prostate cancer and breast cancer cells” (Eur J Med Chem, 2020).

Active and inactive are the calls of the source. The rule behind the calls is not given here.

Test [1] concerns PC-3. Kind of test: Cytotoxicity against human PC-3 cells assessed as cell viability at 30 uM incubated for 48 hrs by MTS assay relative to control. Format: functional. The following applies: read-out: Activity.
Test [2] deals with MCF7. Kind of test: Cytotoxicity against human MCF7 cells assessed as cell viability at 30 uM incubated for 48 hrs by MTS assay relative to control. The following applies: read-out: Activity. Format: functional. (Tetrazolium dyes change colour on reduction, which living cells bring about.)
The subject of test [3] is PC-3. Kind of test: Cytotoxicity against human PC-3 cells assessed as reduction in cell viability incubated for 48 hrs by MTS assay. Format: functional, cell-based. Conditions: PC-3, 48 h.
The test system of test [4] is MCF7. Kind of test: Cytotoxicity against human MCF7 cells assessed as reduction cell viability incubated for 48 hrs by MTS assay. Format: functional, cell-based. Conditions: MCF7, 48 h.
In test [5] the test system is PC-3. Kind of test: Antimigratory activity against human PC-3 cells assessed as reduction in cell migration measured every 2 hrs for 24 hrs by wound healing assay. It is filed as functional, cell-based. Conditions: dose 1-10 µM.
The test system of test [6] is MCF7. Kind of test: Antimigratory activity against human MCF7 cells assessed as reduction in cell migration measured every 2 hrs for 24 hrs by wound healing assay. It is filed as functional, cell-based. The following applies: dose 1-10 µM.
Test [7] relates to PC-3. Kind of test: Induction of apoptosis in human PC-3 cells assessed as increase in caspase-3 activity incubated for 24 hrs by caspase-3 substrate and Hoechst 33342 dye based fluorescence assay. The following applies: dose 1-10 µM. It is filed as functional, cell-based.
Test [8] relates to MCF7. Kind of test: Induction of apoptosis in human MCF7 cells assessed as increase in caspase-3 activity incubated for 24 hrs by caspase-3 substrate and Hoechst 33342 dye based fluorescence assay. Format: functional, cell-based. Conditions: dose 1-10 µM.
Test [9] concerns PC-3. Kind of test: Induction of apoptosis in human PC-3 cells assessed as increase in caspase-3 activity at 10 uM incubated for 24 hrs in presence of Ac-DEVD-CHO by Hoechst 33342 dye based fluorescence assay. It is filed as functional, cell-based.
For test [10], the system named is MCF7. Kind of test: Induction of apoptosis in human MCF7 cells assessed as increase in caspase-3 activity at 10 uM incubated for 24 hrs in presence of Ac-DEVD-CHO by Hoechst 33342 dye based fluorescence assay. Format: functional, cell-based.
Test [11] relates to PC-3. Kind of test: Induction of apoptosis in human PC-3 cells assessed as increase in caspase-3 activity at 10 uM incubated for 24 hrs by Hoechst 33342 staining based fluorescence microscopy. It is filed as functional, cell-based.
The test system of test [12] is MCF7. Kind of test: Induction of apoptosis in human MCF7 cells assessed as increase in caspase-3 activity at 10 uM incubated for 24 hrs by Hoechst 33342 staining based fluorescence microscopy. Format: functional, cell-based.
Test [13] concerns PC-3. Kind of test: Induction of apoptosis in human PC-3 cells assessed as increase in cleaved PARP incubated for 24 hrs by Western blot analysis. Format: functional, cell-based. Conditions: dose 3-30 µM. (In general: A western blot detects proteins with antibodies after separation by electrophoresis.)
For test [14], the system named is MCF7. Kind of test: Induction of apoptosis in human MCF7 cells assessed as increase in cleaved PARP incubated for 24 hrs by Western blot analysis. Format: functional, cell-based.

Usually IC50 stands for the concentration at which inhibition is half-maximal. As to `O=C(C[N+]1=Cc2cccn2[C@H](C(=O)c2ccc(F)cc2)[C@H]1c1ccc(Br)cc1)c1ccccc1` (relative stereo), the values for the viability at 30 µM in the test with PC-3 [1] and with MCF7 [2] were 3.4% and 3.6%, respectively. The IC50 is 1180 nM in the test with PC-3 [3] and 1950 nM with MCF7 [4]. Besides, the inhibition entry in the test with PC-3 [5] and in the test on MCF7 [6] was “Dose-dependent effect” each time. Further, the Activity entry in the test with PC-3 [7], with MCF7 [8], in the test with PC-3 [13] and with MCF7 [14] was “Dose-dependent effect” in each case. The result in the test with PC-3 [9] and in the test on MCF7 [10] was inactive. Besides, the outcome in the test with PC-3 [11] and with MCF7 [12] was Active.
For `O=C(C[N+]1=Cc2cccn2[C@H](C(=O)c2ccc(Br)cc2)[C@H]1c1ccccc1)c1ccccc1` (relative stereo), the viability at 30 µM in the test with PC-3 [1] was determined as 9.1%; in the test on MCF7 [2], 25.5%. Further, the values for the IC50 in the test with PC-3 [3] and with MCF7 [4] were 3450 nM and 3650 nM, respectively. For the same molecule, the inhibition entry in the test with PC-3 [5] and in the test on MCF7 [6] was “Dose-dependent effect” throughout. Further, the Activity result in the test with PC-3 [7], in the test with MCF7 [8], in the test on PC-3 [13] and with MCF7 [14] was “Dose-dependent effect” in each case. In addition, the outcome in the test with PC-3 [9] and in the test with MCF7 [10] was inactive. For the same molecule, the outcome with PC-3 [11] and in the test on MCF7 [12] was Active.
